Measured values reported in paper PMC5784245, “An Optimized Synthetic-Bioinformatic Natural Product Antibiotic Sterilizes Multidrug-Resistant Acinetobacter baumannii-Infected Wounds” (mSphere, 2018).
In brackets after ≈: the same amount, converted by molar mass. Like-named read-outs stand apart in the source and are kept apart here. Non-standard residues stand in square brackets, D forms with d. Residues, ends and D or L forms follow the SMILES beside them. *: point of attachment. Decanoyl = CCCCCCCCCC(=O)*; dOrn = NCCC[C@@H](N)C(=O)O; Orn = NCCC[C@H](N)C(=O)O

Experiments:
Type in all cases: cell-based
[1] = test system: Enterococcus faecium
Protocol: (§1) Wang resins were purchased from Matrix Innovation. Reagents for peptide synthesis were purchased from P3 BioSystems, Chempep, and Chem-Impex International. The fluorescent dyes DiBAC4 and SYTOX were purchased from Thermo Fisher Scientific, and media were prepared from premixed powders: brain heart infusion for S. sobrinus and L. rhamnosus (Hardy Diagnostics), yeast extract-peptone-dextrose for C. albicans, lysogeny broth (LB) for all other bacteria (BD Biosciences), and McCoy’s 5A medium with 10% fetal bovine serum for HT-29 cells (American Type Culture Collection). All other chemicals and consumables were purchased from Sigma-Aldrich and VWR International. Paenimucillin 4F for in vivo studies was purchased from Ontores Biotechnologies as a high-performance liquid chromatography (HPLC)-purified peptide and used as is. Dye assays were performed in a Gen5 microtiter plate reader (Biotek Instruments). Liquid chromatography-mass spectrometry (LC-MS) analyses were performed by using an Acquity system (Waters Corporation).
(§2) Standard susceptibility assays were performed in LB medium in 96-well microtiter plates to determine the MIC by the broth microdilution method in accordance with protocols recommended by Clinical and Laboratory Standards Institute ([35]). Cytotoxicity was assessed using human HT-29 cells based on a similar broth microdilution method ([36]). All assays were performed in duplicate. For the cytotoxicity assay, 5,000 HT-29 cells per well were seeded into a microtiter plate and cultured for 24 h at 37°C in a 5% CO2 atmosphere. Peptides were supplemented at concentrations ranging from 128 to 0.5 μg/ml, and the cells were incubated for another 20 h. Growth media were removed, 3-(4,5-dimethylthiazol-2-yl)-2,5-diphenyltetrazolium bromide (MTT) was added to all wells (220 μl per well at 0.5 mg/ml), the mixture was incubated for 4 h, and then the media were discarded. Cell viability was determined by visual inspection.

[2] = test system: Bacillus subtilis; settings: 24 h
Protocol: as §1, §2

[3] = test system: Acinetobacter baumannii
Protocol: as §1, §2

[4] = test system: Staphylococcus aureus; settings: 24 h
Protocol: as §1, §2

[5] = test system: Lactobacillus rhamnosus; settings: 24 h
Protocol: as §1, §2

[6] = test system: Streptococcus sobrinus; settings: 24 h
Protocol: as §1, §2

[7] = test system: Enterococcus faecalis; settings: 24 h
Protocol: as §1, §2

[8] = test system: Pseudomonas aeruginosa; settings: 24 h
Protocol: as §1, §2

[9] = test system: Enterobacter cloacae; settings: 24 h
Protocol: as §1, §2

[10] = test system: Klebsiella pneumoniae; settings: 24 h
Protocol: as §1, §2

MIC Enterococcus faecium ([1]; strain Com15, LB medium, broth microdilution, duplicate) [µg/mL] | MIC Bacillus subtilis [2] [µg/mL] | MIC Acinetobacter baumannii ([3]; strain ATCC 17978, LB medium, broth microdilution, duplicate) [µg/mL] | MIC Staphylococcus aureus [4] [µg/mL] | MIC Lactobacillus rhamnosus [5] [µg/mL] | MIC Streptococcus sobrinus [6] [µg/mL] | MIC Enterococcus faecalis [7] [µg/mL] | MIC Enterococcus faecium ([1]; 24 h) [µg/mL] | MIC Acinetobacter baumannii ([3]; 24 h) [µg/mL] | MIC Pseudomonas aeruginosa [8] [µg/mL] | MIC Enterobacter cloacae [9] [µg/mL] | MIC Klebsiella pneumoniae [10] [µg/mL] | SMILES
4 (≈ 2.45 µM) | 4 (≈ 2.45 µM) | 16 (≈ 9.82 µM) | 16 (≈ 9.82 µM) | 16 (≈ 9.82 µM) | 2 (≈ 1.23 µM) | 32 (≈ 19.6 µM) |  |  |  |  |  | CCCCCCCCCC(=O)N[C@H](Cc1ccccc1)C(=O)N[C@H](CCCN)C(=O)N[C@@H](C(=O)N[C@H](CO)C(=O)N[C@H](Cc1ccccc1)C(=O)N[C@@H](CO)C(=O)N[C@@H](CO)C(=O)N[C@H](CCCN)C(=O)N[C@@H](Cc1ccccc1)C(=O)N[C@@H](CO)C(=O)N[C@H](C(=O)N[C@@H](C(=O)N[C@@H](CCCN)C(=O)O)[C@H](C)CC)C(C)C)[C@H](C)CC [1F, paenimucillin A] (Decanoyl-[dF][dOrn][dI][dS][dF]SS[dOrn]FSV[dI][Orn]-OH)
 | 16 (≈ 9.37 µM) |  | 64 (≈ 37.5 µM) | 2 (≈ 1.17 µM) | 1 (≈ 0.585 µM) | 128 (≈ 74.9 µM) | 4 (≈ 2.34 µM) | 128 (≈ 74.9 µM) |  |  |  | CCCCCCCCCC(=O)N[C@H](Cc1ccccc1)C(=O)N[C@H](CCCN)C(=O)N[C@@H](C(=O)N[C@H](CO)C(=O)N[C@H](Cc1c[nH]c2ccccc12)C(=O)N[C@@H](CO)C(=O)N[C@@H](CO)C(=O)N[C@H](CCCN)C(=O)N[C@@H](Cc1c[nH]c2ccccc12)C(=O)N[C@@H](CO)C(=O)N[C@H](C(=O)N[C@@H](C(=O)N[C@@H](CCCN)C(=O)O)[C@H](C)CC)C(C)C)[C@H](C)CC [1W, paenimucillin B] (Decanoyl-[dF][dOrn][dI][dS][dW]SS[dOrn]WSV[dI][Orn]-OH)
 | 16 (≈ 10.8 µM) |  | 64 (≈ 43.4 µM) | 128 (≈ 86.7 µM) | 64 (≈ 43.4 µM) | 32 (≈ 21.7 µM) | 32 (≈ 21.7 µM) | 32 (≈ 21.7 µM) | 64 (≈ 43.4 µM) | 8 (≈ 5.42 µM) | 4 (≈ 2.71 µM) | CC[C@@H](C)[C@@H](NC(=O)[C@@H](NC(=O)[C@H](CO)NC(=O)[C@H](Cc1ccccc1)NC(=O)[C@@H](CCCN)NC(=O)[C@H](CO)NC(=O)[C@H](CO)NC(=O)[C@@H](Cc1ccccc1)NC(=O)[C@@H](CO)NC(=O)[C@H](NC(=O)[C@@H](CCCN)NC(=O)[C@H](N)Cc1ccccc1)[C@H](C)CC)C(C)C)C(=O)N[C@@H](CCCN)C(=O)O [5F] (H-[dF][dOrn][dI][dS][dF]SS[dOrn]FSV[dI][Orn]-OH)
 | 2 (≈ 1.29 µM) |  | 8 (≈ 5.15 µM) | 4 (≈ 2.57 µM) | 4 (≈ 2.57 µM) | 4 (≈ 2.57 µM) | 8 (≈ 5.15 µM) | 4 (≈ 2.57 µM) | 16 (≈ 10.3 µM) | 4 (≈ 2.57 µM) | 4 (≈ 2.57 µM) | CC[C@@H](C)[C@@H](NC(=O)[C@@H](NC(=O)[C@H](CO)NC(=O)[C@H](Cc1c[nH]c2ccccc12)NC(=O)[C@@H](CCCN)NC(=O)[C@H](CO)NC(=O)[C@H](CO)NC(=O)[C@@H](Cc1c[nH]c2ccccc12)NC(=O)[C@@H](CO)NC(=O)[C@H](NC(=O)[C@@H](CCCN)NC(=O)[C@H](N)Cc1ccccc1)[C@H](C)CC)C(C)C)C(=O)N[C@@H](CCCN)C(=O)O [5W] (H-[dF][dOrn][dI][dS][dW]SS[dOrn]WSV[dI][Orn]-OH)
